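Five compound concentrations were applied to cells in 96-well plates for 48 hours; endpoints were derived by simple linear interpolation of the resulting dose-response curve. The concentration for 50% growth inhibition is given as GI50. TGI: total growth inhibition.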
Experiments:
Experiment in all cases: inhibition of tumour cell growth, NCI panel, 48 h; in the data active = GI50 below about 0.43 µM; inactive = the rest
[1] = tested on: 786-0 renal
[2] = tested on: A498 renal
[3] = tested on: A549 NSCLC
[4] = tested on: ACHN renal
[5] = tested on: BT-549 breast
[6] = tested on: CAKI-1 renal
[7] = tested on: CCRF-CEM leukemia
[8] = tested on: DU-145 prostate
[9] = tested on: EKVX NSCLC
[10] = tested on: HCC-2998 colon
[11] = tested on: HCT-116 colon
[12] = tested on: HCT-15 colon
[13] = tested on: HL-60(TB) leukemia
[14] = tested on: HOP-62 NSCLC
[15] = tested on: HOP-92 NSCLC
[16] = tested on: HS 578T breast
[17] = tested on: HT29 colon
[18] = tested on: IGROV1 ovarian
[19] = tested on: K-562 leukemia
[20] = tested on: KM12 colon
[21] = tested on: LOX IMVI melanoma
[22] = tested on: M14 melanoma
[23] = tested on: MALME-3M melanoma
[24] = tested on: MDA-MB-231 breast
[25] = tested on: MDA-N
[26] = tested on: MOLT-4 leukemia
[27] = tested on: NCI-H226 lung
[28] = tested on: NCI-H23 lung
[29] = tested on: NCI-H460 lung
[30] = tested on: NCI-H522 lung
[31] = tested on: OVCAR-3 ovarian
[32] = tested on: OVCAR-4 ovarian
[33] = tested on: OVCAR-5 ovarian
[34] = tested on: OVCAR-8 ovarian
[35] = tested on: PC-3 prostate
[36] = tested on: RPMI-8226 leukemia
[37] = tested on: RXF 393 renal
[38] = tested on: SF-268 CNS
[39] = tested on: SF-295 CNS
[40] = tested on: SF-539 CNS
[41] = tested on: SK-MEL-28 melanoma
[42] = tested on: SK-MEL-5 melanoma
[43] = tested on: SN12C renal
[44] = tested on: SNB-19 CNS
[45] = tested on: SNB-75 CNS
[46] = tested on: SR leukemia
[47] = tested on: SW-620 colon
[48] = tested on: T-47D breast
[49] = tested on: TK-10 renal
[50] = tested on: U251 CNS
[51] = tested on: UACC-257 melanoma
[52] = tested on: UO-31 renal
[53] = tested on: COLO 205 colon
[54] = tested on: MCF7 breast
[55] = tested on: MDA-MB-435
[56] = tested on: NCI/ADR-RES ovarian
[57] = tested on: SK-MEL-2 melanoma
[58] = tested on: SK-OV-3 ovarian
[59] = tested on: UACC-62 melanoma

Cc1ccc(/C=C2\Cc3cccc(C)c3C2=O)c(C(=O)O)c1
> 100 µM: TGI [1] | TGI [2] | TGI [3] | TGI [5] | TGI [7] | TGI [8] | TGI [9] | TGI [10] | TGI [11] | TGI [12] | TGI [13] | TGI [14] | TGI [16] | TGI [17] | TGI [18] | TGI [19] | TGI [20] | TGI [21] | TGI [22] | TGI [23] | TGI [24] | TGI [25] | TGI [26] | TGI [27] | TGI [28] | TGI [29] | TGI [31] | TGI [33] | TGI [34] | TGI [35] | TGI [36] | TGI [37] | TGI [38] | TGI [39] | TGI [40] | TGI [41] | TGI [42] | TGI [43] | TGI [44] | TGI [45] | TGI [46] | TGI [47] | TGI [48] | TGI [49] | TGI [50] | TGI [51]
31.4 µM: TGI [52]
52.9 µM: TGI [32]
53.6 µM: TGI [15]
48.8 µM: TGI [6]
60.8 µM: TGI [30]
88.1 µM: TGI [4]

CN(C)/C=N/NC(=O)/C(C#N)=C/N(C)C
> 100 µM: TGI [1] | TGI [2] | TGI [3] | TGI [4] | TGI [6] | TGI [7] | TGI [53] | TGI [8] | TGI [9] | TGI [10] | TGI [11] | TGI [12] | TGI [13] | TGI [14] | TGI [16] | TGI [17] | TGI [18] | TGI [19] | TGI [20] | TGI [21] | TGI [22] | TGI [23] | TGI [54] | TGI [24] | TGI [55] | TGI [25] | TGI [26] | TGI [27] | TGI [28] | TGI [29] | TGI [30] | TGI [56] | TGI [31] | TGI [32] | TGI [33] | TGI [34] | TGI [35] | TGI [36] | TGI [37] | TGI [38] | TGI [39] | TGI [40] | TGI [57] | TGI [41] | TGI [42] | TGI [58] | TGI [43] | TGI [44] | TGI [45] | TGI [46] | TGI [47] | TGI [48] | TGI [49] | TGI [50] | TGI [51] | TGI [59] | TGI [52]

CNc1nnc(CNc2ccc(-c3nnc(NC)n3N)cc2)n1N
93.8 µM: TGI [10]
> 100 µM: TGI [1] | TGI [2] | TGI [3] | TGI [4] | TGI [5] | TGI [6] | TGI [7] | TGI [53] | TGI [8] | TGI [9] | TGI [11] | TGI [12] | TGI [13] | TGI [14] | TGI [15] | TGI [17] | TGI [18] | TGI [19] | TGI [20] | TGI [21] | TGI [22] | TGI [54] | TGI [24] | TGI [55] | TGI [25] | TGI [26] | TGI [27] | TGI [28] | TGI [29] | TGI [56] | TGI [31] | TGI [32] | TGI [33] | TGI [34] | TGI [35] | TGI [37] | TGI [38] | TGI [39] | TGI [40] | TGI [57] | TGI [41] | TGI [42] | TGI [58] | TGI [43] | TGI [44] | TGI [45] | TGI [47] | TGI [49] | TGI [50] | TGI [51] | TGI [52]

COC(=O)CSC(=S)Nc1nnc(NC(=S)SCOC(C)=O)n1C(=S)SCC(=O)OC
> 100 µM: TGI [1] | TGI [2] | TGI [4] | TGI [5] | TGI [6] | TGI [7] | TGI [53] | TGI [8] | TGI [9] | TGI [10] | TGI [11] | TGI [12] | TGI [13] | TGI [16] | TGI [17] | TGI [18] | TGI [19] | TGI [20] | TGI [21] | TGI [22] | TGI [54] | TGI [55] | TGI [25] | TGI [26] | TGI [28] | TGI [29] | TGI [56] | TGI [31] | TGI [32] | TGI [33] | TGI [35] | TGI [36] | TGI [37] | TGI [38] | TGI [39] | TGI [41] | TGI [42] | TGI [43] | TGI [44] | TGI [46] | TGI [47] | TGI [50] | TGI [51] | TGI [59] | TGI [52]
37.5 µM: TGI [14]

O=c1c2cc([N+](=O)[O-])ccc2n2n1CCCC2
> 100 µM: TGI [1] | TGI [2] | TGI [3] | TGI [4] | TGI [6] | TGI [7] | TGI [53] | TGI [8] | TGI [9] | TGI [10] | TGI [11] | TGI [12] | TGI [13] | TGI [14] | TGI [15] | TGI [16] | TGI [17] | TGI [18] | TGI [19] | TGI [20] | TGI [21] | TGI [22] | TGI [23] | TGI [24] | TGI [55] | TGI [25] | TGI [26] | TGI [27] | TGI [28] | TGI [29] | TGI [30] | TGI [56] | TGI [31] | TGI [32] | TGI [33] | TGI [34] | TGI [35] | TGI [36] | TGI [37] | TGI [38] | TGI [39] | TGI [40] | TGI [41] | TGI [42] | TGI [58] | TGI [43] | TGI [44] | TGI [45] | TGI [46] | TGI [47] | TGI [48] | TGI [49] | TGI [50] | TGI [51] | TGI [59] | TGI [52]

C[C@H]1[C@H]2[C@H]3CC[C@@H]4[C@@]5(C)C/C(=C/c6cccnc6)C(=O)C(C)(C)[C@@H]5CC[C@@]4(C)[C@]3(C)CC[C@]23CO[C@]1(C)[C@@H](C(=O)/C=C\c1cccnc1)C3
4.81 µM: TGI [4]
2.53 µM: TGI [13]
1.83 µM: TGI [5]
1.94 µM: TGI [29]
1.91 µM: TGI [23] | TGI [31]
3.11 µM: TGI [15]
1.76 µM: TGI [44]
> 50 µM: TGI [7] | TGI [19] | TGI [56] | TGI [32] | TGI [34] | TGI [58] | TGI [48]
2.07 µM: TGI [50]
9.85 µM: TGI [51]
4.43 µM: TGI [33]
1.86 µM: TGI [20]
8.01 µM: TGI [24]
3.29 µM: TGI [3]
1.57 µM: TGI [21]
1.95 µM: TGI [1]
2.48 µM: TGI [28]
2.31 µM: TGI [40]
1.56 µM: TGI [37]
2.51 µM: TGI [47]
7.4 µM: TGI [16]
2.93 µM: TGI [55]
1.67 µM: TGI [10] | TGI [59]
2.26 µM: TGI [36]
2.83 µM: TGI [57]
> 15.4 µM: TGI [6]
2.2 µM: TGI [18] | TGI [41]
inactive: GI50 [1] 0.905 µM | GI50 [2] 0.661 µM | GI50 [3] 1.22 µM | GI50 [4] 1.49 µM | GI50 [5] 0.785 µM | GI50 [6] 1.45 µM | GI50 [7] 0.44 µM | GI50 [53] 1.43 µM | GI50 [8] 0.923 µM | GI50 [9] 1.56 µM | GI50 [10] 0.868 µM | GI50 [12] 0.982 µM | GI50 [13] 0.794 µM | GI50 [14] 1.47 µM | GI50 [15] 0.844 µM | GI50 [16] 1.44 µM | GI50 [17] 1.16 µM | GI50 [18] 0.975 µM | GI50 [20] 0.892 µM | GI50 [21] 0.783 µM | GI50 [22] 1.57 µM | GI50 [23] 0.849 µM | GI50 [54] 0.842 µM | GI50 [24] 1.27 µM | GI50 [55] 1.17 µM | GI50 [26] 0.524 µM | GI50 [27] 0.97 µM | GI50 [28] 1.03 µM | GI50 [29] 0.929 µM | GI50 [30] 1.15 µM | GI50 [56] 1.54 µM | GI50 [31] 0.886 µM | GI50 [32] 1.5 µM | GI50 [33] 1.46 µM | GI50 [34] 1.59 µM | GI50 [35] 0.498 µM | GI50 [37] 0.824 µM | GI50 [38] 1.27 µM | GI50 [39] 1.38 µM | GI50 [40] 1.03 µM | GI50 [57] 1.21 µM | GI50 [41] 1.02 µM | GI50 [42] 0.836 µM | GI50 [58] 5.9 µM | GI50 [43] 1.1 µM | GI50 [44] 0.869 µM | GI50 [45] 0.99 µM | GI50 [47] 1.02 µM | GI50 [48] 1.98 µM | GI50 [49] 1.72 µM | GI50 [50] 0.964 µM | GI50 [51] 1.74 µM | GI50 [59] 0.67 µM | GI50 [52] 0.675 µM
6.4 µM: TGI [9]
3.37 µM: TGI [35]
2.56 µM: TGI [12]
11.9 µM: TGI [22]
4.17 µM: TGI [38]
3.73 µM: TGI [17]
active: GI50 [11] 0.385 µM | GI50 [19] 0.151 µM | GI50 [36] 0.255 µM | GI50 [46] 0.371 µM
> 11.8 µM: TGI [43]
6.25 µM: TGI [54]
1.54 µM: TGI [2] | TGI [42]
2.1 µM: TGI [27]
3.07 µM: TGI [30]
1.37 µM: TGI [52]
1.28 µM: TGI [11]
4.53 µM: TGI [53]
6.21 µM: TGI [39]
> 15 µM: TGI [14]
8.21 µM: TGI [49]
3.69 µM: TGI [45]
1.71 µM: TGI [8]

Source: PubChem BioAssay (NCI)
